SMILES strings stand for the structures.

The target of test [1] is Serine/threonine-protein kinase mTOR (Homo sapiens) (UniProt P42345). Nature of the test: Inhibition of human mTOR in HL-60 cells lysate assessed as reduction of labeling of acyl-phosphate ATP probe at 100 nM. It is filed as cell-free.
Test [2] concerns the target Serine/threonine-protein kinase SMG1 (Homo sapiens) (UniProt Q96Q15). Nature of the test: Inhibition of human SMG1 in HL-60 cells lysate assessed as reduction of labeling of acyl-phosphate ATP probe at 100 nM. The class given is cell-free.
The target in test [3] is Calcium/calmodulin-dependent protein kinase kinase 2 (Homo sapiens) (UniProt Q96RR4). Nature of the test: Inhibition of human CaMKK2 in HL-60 cells lysate assessed as reduction of labeling of acyl-phosphate ATP probe at 100 nM. It is filed as cell-free.
Test [4] has as its target Serine/threonine-protein kinase 16 (Homo sapiens) (UniProt O75716). Nature of the test: Inhibition of human MPSK1 in HL-60 cells lysate assessed as reduction of labeling of acyl-phosphate ATP probe at 100 nM. It is filed as cell-free.
For test [5], the target named is Serine/threonine-protein kinase Nek7 (Homo sapiens) (UniProt Q8TDX7). Nature of the test: Inhibition of human NEK7 in HL-60 cells lysate assessed as reduction of labeling of acyl-phosphate ATP probe at 100 nM. The class given is cell-free.
Serine/threonine-protein kinase Nek7 (Homo sapiens), sequence (Q8TDX7 whole entry, looked up): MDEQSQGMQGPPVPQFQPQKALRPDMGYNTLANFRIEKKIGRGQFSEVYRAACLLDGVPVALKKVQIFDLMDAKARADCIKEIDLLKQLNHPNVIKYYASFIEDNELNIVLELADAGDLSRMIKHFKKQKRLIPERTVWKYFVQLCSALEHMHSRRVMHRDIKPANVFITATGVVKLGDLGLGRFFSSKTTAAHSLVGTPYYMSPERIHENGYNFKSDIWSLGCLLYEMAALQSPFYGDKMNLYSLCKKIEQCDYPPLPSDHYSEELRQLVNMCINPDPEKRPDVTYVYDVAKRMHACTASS
In test [6] the target is T1, Serine/threonine-protein kinase tousled-like 1 (Homo sapiens) (UniProt Q9UKI8).
T1 sequence (whole entry): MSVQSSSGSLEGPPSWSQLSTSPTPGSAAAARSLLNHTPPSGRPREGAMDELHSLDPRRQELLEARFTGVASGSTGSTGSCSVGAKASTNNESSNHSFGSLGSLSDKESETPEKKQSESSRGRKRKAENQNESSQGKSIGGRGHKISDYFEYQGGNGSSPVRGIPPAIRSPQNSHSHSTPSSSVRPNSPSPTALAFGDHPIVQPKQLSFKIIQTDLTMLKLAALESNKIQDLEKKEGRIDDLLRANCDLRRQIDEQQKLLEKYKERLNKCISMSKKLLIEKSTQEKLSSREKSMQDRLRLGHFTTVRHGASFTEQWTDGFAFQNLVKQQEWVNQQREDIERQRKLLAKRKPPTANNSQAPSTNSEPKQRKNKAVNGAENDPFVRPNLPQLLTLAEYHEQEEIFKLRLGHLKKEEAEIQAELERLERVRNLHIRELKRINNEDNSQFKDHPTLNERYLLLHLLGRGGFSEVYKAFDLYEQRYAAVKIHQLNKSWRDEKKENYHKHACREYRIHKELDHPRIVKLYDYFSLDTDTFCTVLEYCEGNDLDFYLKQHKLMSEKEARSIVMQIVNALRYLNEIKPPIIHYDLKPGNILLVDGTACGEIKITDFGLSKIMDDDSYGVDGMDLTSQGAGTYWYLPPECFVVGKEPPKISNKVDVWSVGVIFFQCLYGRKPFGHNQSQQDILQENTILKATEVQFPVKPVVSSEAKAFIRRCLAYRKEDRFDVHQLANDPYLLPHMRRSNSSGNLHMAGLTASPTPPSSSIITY
Nature of the test: Inhibition of human TLK1 in HL-60 cells lysate assessed as reduction of labeling of acyl-phosphate ATP probe at 100 nM. The class given is cell-free.

Test [7] addresses Wee1-like protein kinase (Homo sapiens) (UniProt P30291). Nature of the test: Inhibition of human Wee1 in HL-60 cells lysate assessed as reduction of labeling of acyl-phosphate ATP probe at 100 nM. It is filed as cell-free.
Test [8] deals with HL-60. Nature of the test: Inhibition of human Wnk1/Wnk2/Wnk4 in HL-60 cells lysate assessed as reduction of labeling of acyl-phosphate ATP probe at 100 nM.
Test [9] has as its target T2, Dual specificity mitogen-activated protein kinase kinase 4 (Homo sapiens) (UniProt P45985).
T2 sequence (whole entry): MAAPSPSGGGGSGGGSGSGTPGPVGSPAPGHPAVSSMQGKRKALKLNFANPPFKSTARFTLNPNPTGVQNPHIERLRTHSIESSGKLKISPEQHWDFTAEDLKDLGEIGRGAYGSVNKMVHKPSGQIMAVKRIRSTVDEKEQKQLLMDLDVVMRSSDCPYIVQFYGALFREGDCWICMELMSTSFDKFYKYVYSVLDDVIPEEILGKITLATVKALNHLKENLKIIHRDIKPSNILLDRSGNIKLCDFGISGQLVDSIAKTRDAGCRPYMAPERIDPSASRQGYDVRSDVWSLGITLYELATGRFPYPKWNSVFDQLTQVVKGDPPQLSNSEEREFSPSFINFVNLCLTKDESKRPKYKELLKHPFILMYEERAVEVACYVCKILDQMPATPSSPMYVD
Nature of the test: Inhibition of human MAP2K4 in HL-60 cells lysate assessed as reduction of labeling of acyl-phosphate ATP probe at 100 nM. The class given is cell-free.

Test [10] concerns HL-60. Nature of the test: Inhibition of human MST3/MST4/YSK1 in HL-60 cells lysate assessed as reduction of labeling of acyl-phosphate ATP probe at 100 nM.
For test [11], the target named is Tyrosine-protein kinase CSK (Homo sapiens) (UniProt P41240). Nature of the test: Inhibition of human CSK in HL-60 cells lysate assessed as reduction of labeling of acyl-phosphate ATP probe at 100 nM. It is filed as cell-free.
For test [12], the target named is Tyrosine-protein kinase Fer (Homo sapiens) (UniProt P16591). Nature of the test: Inhibition of human FER in HL-60 cells lysate assessed as reduction of labeling of acyl-phosphate ATP probe at 100 nM. It is filed as cell-free.
Tyrosine-protein kinase Fer (Homo sapiens), sequence (P16591 whole entry, looked up): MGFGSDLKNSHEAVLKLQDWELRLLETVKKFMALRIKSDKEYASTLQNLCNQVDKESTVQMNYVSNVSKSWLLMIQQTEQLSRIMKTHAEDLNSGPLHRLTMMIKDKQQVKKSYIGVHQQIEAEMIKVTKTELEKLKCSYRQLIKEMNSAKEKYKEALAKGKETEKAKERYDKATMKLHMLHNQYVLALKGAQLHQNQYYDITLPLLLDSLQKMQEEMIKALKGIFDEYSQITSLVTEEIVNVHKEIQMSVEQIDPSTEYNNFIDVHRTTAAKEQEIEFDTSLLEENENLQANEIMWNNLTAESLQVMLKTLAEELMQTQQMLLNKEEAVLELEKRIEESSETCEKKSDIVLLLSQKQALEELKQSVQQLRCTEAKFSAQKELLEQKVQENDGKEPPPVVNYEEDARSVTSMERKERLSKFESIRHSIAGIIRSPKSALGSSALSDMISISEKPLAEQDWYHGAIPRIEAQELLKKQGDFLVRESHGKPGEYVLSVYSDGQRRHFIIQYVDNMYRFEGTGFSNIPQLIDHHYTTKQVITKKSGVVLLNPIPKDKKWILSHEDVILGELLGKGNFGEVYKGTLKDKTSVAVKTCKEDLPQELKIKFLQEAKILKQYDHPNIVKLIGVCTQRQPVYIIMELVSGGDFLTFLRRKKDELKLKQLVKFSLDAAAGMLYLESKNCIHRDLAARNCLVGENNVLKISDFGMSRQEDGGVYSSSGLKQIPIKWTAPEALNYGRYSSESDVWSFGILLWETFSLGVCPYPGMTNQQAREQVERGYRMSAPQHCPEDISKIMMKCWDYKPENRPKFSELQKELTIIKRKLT
The target in test [13] is Protein-tyrosine kinase 2-beta (Homo sapiens) (UniProt Q14289). Nature of the test: Inhibition of human PYK2 in HL-60 cells lysate assessed as reduction of labeling of acyl-phosphate ATP probe at 100 nM. It is filed as cell-free.
Test [14] concerns HL-60. Nature of the test: Inhibition of human KSR1/KSR2 in HL-60 cells lysate assessed as reduction of labeling of acyl-phosphate ATP probe at 100 nM.
Test [15] has as its target T3, Glycogen synthase kinase-3 beta (Homo sapiens, UniProt P49841). Nature of the test: Inhibition of GSK3-beta.
Test [16] concerns the target T3, Glycogen synthase kinase-3 beta. Nature of the test: Inhibition of human GSK3-beta in HL-60 cells lysate assessed as reduction of labelling of acyl-phosphate ATP probe at 100 nM. It is filed as cell-free.
The subject of test [17] is HL-60. Nature of the test: Inhibition of human P38delta/P38gamma in HL-60 cells lysate assessed as reduction of labeling of acyl-phosphate ATP probe at 100 nM.
The target of test [18] is STE20-like serine/threonine-protein kinase SLK (Homo sapiens) (UniProt Q9H2G2). Nature of the test: Inhibition of human SLK in HL-60 cells lysate assessed as reduction of labeling of acyl-phosphate ATP probe at 100 nM.
For test [19], the system named is MAP4K2 (germinal center kinase) (Homo sapiens). Nature of the test: Inhibition of human GCK in HL-60 cells lysate assessed as reduction of labeling of acyl-phosphate ATP probe at 100 nM.

Serine/threonine-protein kinase SMG1 (Homo sapiens), sequence (Q96Q15 whole entry): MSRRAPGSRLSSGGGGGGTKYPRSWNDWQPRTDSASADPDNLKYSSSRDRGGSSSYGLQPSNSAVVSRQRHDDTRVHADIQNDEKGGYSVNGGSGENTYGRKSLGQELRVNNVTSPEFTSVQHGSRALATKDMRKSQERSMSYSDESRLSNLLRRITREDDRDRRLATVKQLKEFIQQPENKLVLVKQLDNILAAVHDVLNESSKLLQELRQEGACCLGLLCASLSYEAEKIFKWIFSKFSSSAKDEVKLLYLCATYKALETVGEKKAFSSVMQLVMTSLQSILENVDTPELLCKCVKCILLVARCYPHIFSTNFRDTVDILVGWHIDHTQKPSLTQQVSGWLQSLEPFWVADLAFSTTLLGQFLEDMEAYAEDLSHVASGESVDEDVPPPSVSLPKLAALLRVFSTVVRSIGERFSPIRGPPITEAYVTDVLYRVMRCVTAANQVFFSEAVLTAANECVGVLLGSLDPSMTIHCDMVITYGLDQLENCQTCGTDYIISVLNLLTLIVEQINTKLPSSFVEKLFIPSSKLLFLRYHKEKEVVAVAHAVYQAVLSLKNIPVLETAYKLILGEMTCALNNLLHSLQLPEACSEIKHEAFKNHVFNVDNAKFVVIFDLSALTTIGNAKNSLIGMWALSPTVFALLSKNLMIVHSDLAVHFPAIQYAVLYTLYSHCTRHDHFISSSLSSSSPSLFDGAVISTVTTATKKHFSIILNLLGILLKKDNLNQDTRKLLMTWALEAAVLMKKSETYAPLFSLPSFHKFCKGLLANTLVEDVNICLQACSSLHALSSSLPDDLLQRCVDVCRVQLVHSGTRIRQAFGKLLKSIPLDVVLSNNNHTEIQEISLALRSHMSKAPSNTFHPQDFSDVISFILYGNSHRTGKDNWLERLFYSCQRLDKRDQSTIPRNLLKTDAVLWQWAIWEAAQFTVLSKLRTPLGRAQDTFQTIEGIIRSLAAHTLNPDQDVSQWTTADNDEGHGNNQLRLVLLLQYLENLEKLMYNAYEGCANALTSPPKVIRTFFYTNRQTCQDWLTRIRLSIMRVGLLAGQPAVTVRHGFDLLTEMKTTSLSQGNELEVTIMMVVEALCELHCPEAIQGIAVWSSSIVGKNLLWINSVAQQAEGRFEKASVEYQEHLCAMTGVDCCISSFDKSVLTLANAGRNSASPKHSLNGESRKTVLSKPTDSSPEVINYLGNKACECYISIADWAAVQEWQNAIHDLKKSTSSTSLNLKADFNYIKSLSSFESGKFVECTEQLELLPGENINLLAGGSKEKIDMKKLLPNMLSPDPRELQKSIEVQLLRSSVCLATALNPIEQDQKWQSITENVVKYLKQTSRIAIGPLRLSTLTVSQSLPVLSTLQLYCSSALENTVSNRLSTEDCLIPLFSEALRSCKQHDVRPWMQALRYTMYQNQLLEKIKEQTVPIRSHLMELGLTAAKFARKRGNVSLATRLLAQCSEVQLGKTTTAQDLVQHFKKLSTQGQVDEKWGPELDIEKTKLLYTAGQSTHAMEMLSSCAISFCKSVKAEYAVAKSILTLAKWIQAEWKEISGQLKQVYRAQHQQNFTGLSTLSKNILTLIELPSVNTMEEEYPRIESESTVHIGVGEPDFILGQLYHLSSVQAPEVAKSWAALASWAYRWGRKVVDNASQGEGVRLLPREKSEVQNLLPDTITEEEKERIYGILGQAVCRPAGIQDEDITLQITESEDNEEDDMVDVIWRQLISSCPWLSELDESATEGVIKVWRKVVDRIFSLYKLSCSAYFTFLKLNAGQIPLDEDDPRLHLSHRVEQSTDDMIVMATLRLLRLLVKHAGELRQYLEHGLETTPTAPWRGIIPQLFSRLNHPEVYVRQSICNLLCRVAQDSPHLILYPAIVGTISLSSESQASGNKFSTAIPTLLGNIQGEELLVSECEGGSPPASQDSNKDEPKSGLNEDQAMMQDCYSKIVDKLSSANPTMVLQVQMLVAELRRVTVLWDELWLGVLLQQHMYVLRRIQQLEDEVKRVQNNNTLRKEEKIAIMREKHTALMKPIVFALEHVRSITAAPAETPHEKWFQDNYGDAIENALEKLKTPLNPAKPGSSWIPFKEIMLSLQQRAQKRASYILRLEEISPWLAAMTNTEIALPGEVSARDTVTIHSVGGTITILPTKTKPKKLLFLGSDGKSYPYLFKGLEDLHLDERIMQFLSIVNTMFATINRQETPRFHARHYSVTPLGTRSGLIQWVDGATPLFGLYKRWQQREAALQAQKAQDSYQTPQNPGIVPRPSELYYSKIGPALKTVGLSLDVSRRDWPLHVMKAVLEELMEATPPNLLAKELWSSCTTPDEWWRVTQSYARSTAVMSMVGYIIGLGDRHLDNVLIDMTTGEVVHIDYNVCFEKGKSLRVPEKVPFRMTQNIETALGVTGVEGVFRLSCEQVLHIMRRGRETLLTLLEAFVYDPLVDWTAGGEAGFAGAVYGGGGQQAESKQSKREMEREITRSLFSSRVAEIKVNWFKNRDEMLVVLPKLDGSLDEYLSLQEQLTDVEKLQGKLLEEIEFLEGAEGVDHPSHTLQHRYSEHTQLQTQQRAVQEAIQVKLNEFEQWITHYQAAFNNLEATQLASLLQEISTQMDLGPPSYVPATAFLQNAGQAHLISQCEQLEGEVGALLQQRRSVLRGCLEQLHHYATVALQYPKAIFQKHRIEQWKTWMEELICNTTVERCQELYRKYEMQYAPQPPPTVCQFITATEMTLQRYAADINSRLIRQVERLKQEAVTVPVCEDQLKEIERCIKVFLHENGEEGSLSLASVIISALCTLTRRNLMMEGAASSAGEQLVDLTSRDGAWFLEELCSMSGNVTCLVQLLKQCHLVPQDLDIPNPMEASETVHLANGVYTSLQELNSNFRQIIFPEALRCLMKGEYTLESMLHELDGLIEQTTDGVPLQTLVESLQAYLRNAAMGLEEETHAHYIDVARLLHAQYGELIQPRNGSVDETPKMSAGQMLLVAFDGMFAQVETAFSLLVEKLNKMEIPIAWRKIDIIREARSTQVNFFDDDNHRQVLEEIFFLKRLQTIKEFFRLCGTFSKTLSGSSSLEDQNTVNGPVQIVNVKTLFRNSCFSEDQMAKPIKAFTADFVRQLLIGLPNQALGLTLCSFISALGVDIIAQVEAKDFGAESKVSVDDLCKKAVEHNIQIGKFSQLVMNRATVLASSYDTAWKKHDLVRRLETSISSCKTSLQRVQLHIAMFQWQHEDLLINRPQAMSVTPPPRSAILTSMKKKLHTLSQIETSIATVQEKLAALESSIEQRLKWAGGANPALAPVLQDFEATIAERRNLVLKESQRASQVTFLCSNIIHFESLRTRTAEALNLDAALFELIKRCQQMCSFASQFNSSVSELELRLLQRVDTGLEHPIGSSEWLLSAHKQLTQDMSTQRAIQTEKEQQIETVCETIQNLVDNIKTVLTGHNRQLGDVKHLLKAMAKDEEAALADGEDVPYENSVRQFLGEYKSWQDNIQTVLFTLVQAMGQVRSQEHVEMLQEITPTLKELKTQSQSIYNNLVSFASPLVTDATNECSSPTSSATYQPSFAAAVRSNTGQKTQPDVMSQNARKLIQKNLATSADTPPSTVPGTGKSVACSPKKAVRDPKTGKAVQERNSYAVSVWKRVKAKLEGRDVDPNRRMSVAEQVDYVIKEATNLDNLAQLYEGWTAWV
Serine/threonine-protein kinase 16 (Homo sapiens), sequence (O75716 whole entry): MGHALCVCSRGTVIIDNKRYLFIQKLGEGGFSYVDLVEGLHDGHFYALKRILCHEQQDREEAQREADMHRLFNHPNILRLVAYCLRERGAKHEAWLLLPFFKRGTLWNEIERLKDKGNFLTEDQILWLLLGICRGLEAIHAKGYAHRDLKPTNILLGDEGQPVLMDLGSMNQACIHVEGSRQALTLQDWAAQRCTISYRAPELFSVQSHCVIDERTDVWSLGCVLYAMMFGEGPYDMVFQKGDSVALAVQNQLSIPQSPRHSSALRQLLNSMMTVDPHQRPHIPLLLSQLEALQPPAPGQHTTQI

For `C[C@H]1COc2c(NCCCc3ccccn3)c(F)c(N)c3c(=O)c(C#N)cn1c23`, the inhibition in test [1], in test [2], in test [3], in [4], in test [5] and in test [6] was below 35% each time. Moreover, the inhibition in test [7] was below 35%; in test [9], below 35%; in [11], below 35%; in [12], below 35%; in test [13], below 35%; in test [16], above 99.5%. In test [18], the inhibition was below 35%. The inhibition at 0.1 µM in test [8], in test [10], in test [14] and in test [17] was below 35% each time. This molecule registered an IC50 in test [15] of 0.6 nM.
Regarding `C[C@H]1COc2c(NCCCc3ccccn3)c(F)c(N)c3c(=O)c(C(=O)O)cn1c23`, the inhibition in test [1], in test [2], in test [3], in test [4], in test [5] and in [6] was below 35% each time. Moreover, the inhibition in [7] is below 35%; in test [9] it was below 35%; in test [11], below 35%; in test [12] it was below 35%; in test [13] it was below 35%; in [16], 82.9%. Moreover, the inhibition in [19] and in test [18] was below 35% in each case. Besides, the inhibition at 0.1 µM in test [8], in [10], in [14] and in test [17] was below 35% each time. In test [15], this molecule showed a half-inhibitory concentration (IC50) of 10 nM.
On to `C[C@H]1COc2c(NCCCn3cccn3)c(F)c(N)c3c(=O)c(C(=O)O)cn1c23`, for which the inhibition in test [1], in test [2], in test [3], in test [4], in test [5] and in [6] was below 35% each time. Also, the inhibition in test [7] was below 35%; in test [9], below 35%; in [11], below 35%; in [12], below 35%; in [13], below 35%; in test [16] it was 87.8%. The inhibition in test [18] was below 35%. Besides, the inhibition at 0.1 µM in test [8], in [10], in test [14] and in test [17] was below 35% each time. This molecule registered an IC50 in test [15] of 16 nM.
As to `C[C@H]1COc2c(NCCCn3cccn3)c(F)c(N)c3c(=O)c(C#N)cn1c23`, the inhibition in [1], in test [2], in [3], in test [4], in test [5] and in test [6] was below 35% each time. Moreover, the inhibition in test [7] is below 35%; in test [9], below 35%; in test [11] it was below 35%; in [12] it was below 35%; in test [13] it was below 35%; in [16], 99.2%. Also, the inhibition in [19] and in test [18] was below 35% each time. Moreover, the inhibition at 0.1 µM in test [8], in [10], in [14] and in test [17] was below 35% in each case. In addition, the IC50 in test [15] is 0.86 nM.

The values are drawn from ChEMBL document CHEMBL1938230, “6-Position optimization of tricyclic 4-quinolone-based inhibitors of glycogen synthase kinase-3β: discovery of nitrile derivatives with picomolar potency” (Bioorg Med Chem Lett, 2012).
